Measurements as given in patent US10428017B2, “Modulators of the cystic fibrosis transmembrane conductance regulator protein and methods of use” (AbbVie S.à.r.l., priority 2017, dated 2019).
pEC50: −log10 of the molar value. Like-named read-outs stand apart in the source and are kept apart here.

Biological target: T1, F508delCFTR (Homo sapiens, UniProt P13569, DEL508-508)
T1 construct: expressed in transfected cells; host or cells: CFBE4lo-F508delCFTR-HRP cells (human lung derived epithelial cell line, doxycycline-inducible)
Test: Cell Surface Expression-Horse Radish Peroxidase (CSE-HRP) Assay
Assay type: cell-based
Settings: for pEC50: CFBE4lo-F508delCFTR-HRP cells, 18-24 hours at 33° C.; for Emax / Maximum % activity (with co-corrector): maximum at any tested concentration (up to 20 μM), normalized to on-plate positive control (2 μM co-corrector); for Maximum % activity (with co-corrector): with co-corrector 2 μM
In short: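 Surface F508delCFTR measured via exofacial-loop HRP luminescence (luminol) in doxycycline-induced (0.5 μg/mL, 72 h) CFBE4lo− cells. Compounds, 20 μM top, 3-fold, 8 concentrations, ±2 μM co-corrector, incubated 18-24 h at 33° C; EC50 by variable-slope sigmoidal fit of % activity relative to positive control, three replicate plates.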

[1] = test compound without co-corrector, HRP luminescence readout, read-out: EC50 (without co-corrector)
[2] = test compound without co-corrector
[3] = with co-corrector 2 μM 3-[(2R,4R)-4-({[1-(2,2-difluoro-1,3-benzodioxol-5-yl)cyclopropyl]carbonyl}amino)-7-methoxy-3,4-dihydro-2H-chromen-2-yl]benzoic acid, read-out: EC50 (with co-corrector)

T1 sequence (P13569 with tags, fused parts or gaps DEL508-508): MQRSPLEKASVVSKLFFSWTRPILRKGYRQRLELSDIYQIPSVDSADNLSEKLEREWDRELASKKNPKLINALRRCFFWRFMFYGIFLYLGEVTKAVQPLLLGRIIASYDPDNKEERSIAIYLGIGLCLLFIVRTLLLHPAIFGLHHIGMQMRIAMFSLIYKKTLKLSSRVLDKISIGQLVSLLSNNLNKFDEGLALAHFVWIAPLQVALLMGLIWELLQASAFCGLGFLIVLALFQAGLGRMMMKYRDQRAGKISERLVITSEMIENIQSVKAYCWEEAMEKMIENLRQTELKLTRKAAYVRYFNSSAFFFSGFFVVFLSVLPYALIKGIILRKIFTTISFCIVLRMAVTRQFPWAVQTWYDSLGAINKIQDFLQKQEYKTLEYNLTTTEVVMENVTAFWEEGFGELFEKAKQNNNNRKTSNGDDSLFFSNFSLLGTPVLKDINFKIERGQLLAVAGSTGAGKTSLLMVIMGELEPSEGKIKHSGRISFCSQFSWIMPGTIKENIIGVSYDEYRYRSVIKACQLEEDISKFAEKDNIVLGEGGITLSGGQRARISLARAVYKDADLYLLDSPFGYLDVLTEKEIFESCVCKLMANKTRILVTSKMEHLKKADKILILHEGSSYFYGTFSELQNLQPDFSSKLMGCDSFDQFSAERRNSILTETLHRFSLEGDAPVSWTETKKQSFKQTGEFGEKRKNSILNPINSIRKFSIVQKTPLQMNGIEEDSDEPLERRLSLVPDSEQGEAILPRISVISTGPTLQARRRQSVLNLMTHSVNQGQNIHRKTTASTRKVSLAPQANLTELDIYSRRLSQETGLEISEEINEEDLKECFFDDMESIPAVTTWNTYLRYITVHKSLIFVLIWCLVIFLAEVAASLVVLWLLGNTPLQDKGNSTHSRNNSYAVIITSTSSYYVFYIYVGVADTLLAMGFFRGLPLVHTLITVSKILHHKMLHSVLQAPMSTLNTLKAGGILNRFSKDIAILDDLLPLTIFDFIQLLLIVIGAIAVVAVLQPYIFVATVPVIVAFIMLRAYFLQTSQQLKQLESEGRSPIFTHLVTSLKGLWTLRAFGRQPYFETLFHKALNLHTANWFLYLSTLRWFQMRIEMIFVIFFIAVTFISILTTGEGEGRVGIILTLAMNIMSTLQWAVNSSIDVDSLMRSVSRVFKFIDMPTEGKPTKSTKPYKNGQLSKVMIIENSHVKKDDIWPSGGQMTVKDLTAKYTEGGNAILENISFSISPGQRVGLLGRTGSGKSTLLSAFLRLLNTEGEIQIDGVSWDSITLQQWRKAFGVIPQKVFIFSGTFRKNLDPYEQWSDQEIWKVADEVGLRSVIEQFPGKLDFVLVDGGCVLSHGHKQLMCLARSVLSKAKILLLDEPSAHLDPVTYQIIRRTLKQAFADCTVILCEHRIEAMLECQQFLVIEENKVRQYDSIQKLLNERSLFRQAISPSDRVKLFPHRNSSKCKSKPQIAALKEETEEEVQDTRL

Row | Structure (SMILES) | pEC50 [1] | Emax [2] [%] | pEC50 [3] | Maximum % activity (with co-corrector)
1 | COc1ccc(C#N)c2c1C(C(=O)NS(=O)(=O)c1cccc3ccccc13)CC(C)(C)O2 (stereo not shown) [Example 50, 8-cyano-5-methoxy-2,2-dimethyl-N-(naphthalene-1-sulfonyl)-3,4-dihydro-2H-1-benzopyran-4-carboxamide] | 5.00 to 5.52 | 50 to 150 | > 5.52 | +++ (≥350)
2 | COc1ccc(Cl)c2c1C(C(=O)NS(=O)(=O)c1cccc3ccccc13)CC(C)(C)O2 (stereo not shown) [Example 51, 8-chloro-5-methoxy-2,2-dimethyl-N-(naphthalene-1-sulfonyl)-3,4-dihydro-2H-1-benzopyran-4-carboxamide] | > 5.52 | ≥ 150 | > 5.52 | +++ (≥350)
3 | COc1ccc(Br)c2c1C(C(=O)NS(=O)(=O)c1cccc3ccccc13)CC(C)(C)O2 (stereo not shown) [Example 52, 8-bromo-5-methoxy-2,2-dimethyl-N-(naphthalene-1-sulfonyl)-3,4-dihydro-2H-1-benzopyran-4-carboxamide] | > 5.52 | ≥ 150 | > 5.52 | +++ (≥350)
4 | COc1ccc(C(F)(F)F)c2c1C(C(=O)NS(=O)(=O)c1cccc3ccccc13)CCO2 (stereo not shown) [Example 53, 5-methoxy-N-(naphthalene-1-sulfonyl)-8-(trifluoromethyl)-3,4-dihydro-2H-1-benzopyran-4-carboxamide] | > 5.52 | ≥ 150 | > 5.52 | +++ (≥350)
5 | COc1ccc(C2CCC2)c2c1C(C(=O)NS(=O)(=O)c1cccc3ncccc13)CCO2 (stereo not shown) [Example 54, 8-cyclobutyl-5-methoxy-N-(quinoline-5-sulfonyl)-3,4-dihydro-2H-1-benzopyran-4-carboxamide] | 5.00 to 5.52 | ≥ 150 | > 5.52 | +++ (≥350)
6 | COc1ccc(C2CCC2)c2c1[C@@H](C(=O)NS(=O)(=O)c1cccc3ccccc13)CCO2 [Example 55, (4S)-8-cyclobutyl-5-methoxy-N-(naphthalene-1-sulfonyl)-3,4-dihydro-2H-1-benzopyran-4-carboxamide] | 5.00 to 5.52 | ≥ 150 | 5.00 to 5.52 | +++ (≥350)
7 | COc1ccc(C2CCC2)c2c1[C@H](C(=O)NS(=O)(=O)c1cccc3ccccc13)CCO2 [Example 56, (4R)-8-cyclobutyl-5-methoxy-N-(naphthalene-1-sulfonyl)-3,4-dihydro-2H-1-benzopyran-4-carboxamide] | > 5.52 | ≥ 150 | > 5.52 | +++ (≥350)
8 | COc1ccc(C(F)(F)F)c2c1[C@@H](C(=O)NS(=O)(=O)c1cccc3ccccc13)CCO2 [Example 57, (4S)-5-methoxy-N-(naphthalene-1-sulfonyl)-8-(trifluoromethyl)-3,4-dihydro-2H-1-benzopyran-4-carboxamide] | 5.00 to 5.52 | ≥ 150 | > 5.52 | +++ (≥350)
9 | COc1ccc(C(F)(F)F)c2c1[C@H](C(=O)NS(=O)(=O)c1cccc3ccccc13)CCO2 [Example 58, (4R)-5-methoxy-N-(naphthalene-1-sulfonyl)-8-(trifluoromethyl)-3,4-dihydro-2H-1-benzopyran-4-carboxamide] | > 5.52 | ≥ 150 | > 5.52 | +++ (≥350)
10 | COc1ccc(C2CCC2)c2c1[C@@H](C(=O)NS(=O)(=O)c1cccc3ncccc13)CCO2 [Example 59, (4S)-8-cyclobutyl-5-methoxy-N-(quinoline-5-sulfonyl)-3,4-dihydro-2H-1-benzopyran-4-carboxamide] | 5.00 to 5.52 | ≥ 150 | 5.00 to 5.52 | +++ (≥350)
11 | COc1ccc(C2CCC2)c2c1[C@H](C(=O)NS(=O)(=O)c1cccc3ncccc13)CCO2 [Example 60, (4R)-8-cyclobutyl-5-methoxy-N-(quinoline-5-sulfonyl)-3,4-dihydro-2H-1-benzopyran-4-carboxamide] | > 5.52 | ≥ 150 | > 5.52 | +++ (≥350)
12 | CCC1(C(=O)NS(=O)(=O)c2cccc3ccccc23)COc2c(C(F)(F)F)cccc21 (stereo not shown) [Example 61, 3-ethyl-N-(naphthalene-1-sulfonyl)-7-(trifluoromethyl)-2,3-dihydro-1-benzofuran-3-carboxamide] | 5.00 to 5.52 | ≥ 150 | 5.00 to 5.52 | +++ (≥350)
13 | COc1ccc(OC)c2c1OCC2C(=O)NS(=O)(=O)c1cccc2ccccc12 (stereo not shown) [Example 62, 4,7-dimethoxy-N-(naphthalene-1-sulfonyl)-2,3-dihydro-1-benzofuran-3-carboxamide] | 5.00 to 5.52 | ≥ 150 | 5.00 to 5.52 | +++ (≥350)
14 | COc1ccc(Cl)c2c1C(C(=O)NS(=O)(=O)c1cccc3ccccc13)CO2 (stereo not shown) [Example 63, 7-chloro-4-methoxy-N-(naphthalene-1-sulfonyl)-2,3-dihydro-1-benzofuran-3-carboxamide] | 5.00 to 5.52 | ≥ 150 | > 5.52 | +++ (≥350)
15 | COc1ccc(C2CC2)c2c1C(C(=O)NS(=O)(=O)c1cccc3ccccc13)CCO2 (stereo not shown) [Example 64, 8-cyclopropyl-5-methoxy-N-(naphthalene-1-sulfonyl)-3,4-dihydro-2H-1-benzopyran-4-carboxamide] | 5.00 to 5.52 | ≥ 150 | > 5.52 | +++ (≥350)
16 | COc1ccc(C2CCC2)c2c1[C@@H](C(=O)NS(=O)(=O)c1cccc3ccccc13)CO2 [Example 66, (3R)-7-cyclobutyl-4-methoxy-N-(naphthalene-1-sulfonyl)-2,3-dihydro-1-benzofuran-3-carboxamide] | > 5.52 | ≥ 150 | > 5.52 | +++ (≥350)
17 | COc1ccc(Br)c2c1[C@@H](C(=O)NS(=O)(=O)c1cccc3cnn(C)c13)CCO2 [Example 69, (4S)-8-bromo-5-methoxy-N-(1-methyl-1H-indazole-7-sulfonyl)-3,4-dihydro-2H-1-benzopyran-4-carboxamide] | 5.00 to 5.52 | 50 to 150 | 5.00 to 5.52 | ++ (≥150 and <350)
18 | COc1ccc(Br)c2c1[C@H](C(=O)NS(=O)(=O)c1cccc3cnn(C)c13)CCO2 [Example 70, (4R)-8-bromo-5-methoxy-N-(1-methyl-1H-indazole-7-sulfonyl)-3,4-dihydro-2H-1-benzopyran-4-carboxamide] | > 5.52 | ≥ 150 | > 5.52 | +++ (≥350)
19 | COc1ccc(Br)c2c1[C@@H](C(=O)NS(=O)(=O)c1cccc3ncccc13)CC(C)(C)O2 [Example 71, (4S)-8-bromo-5-methoxy-2,2-dimethyl-N-(quinoline-5-sulfonyl)-3,4-dihydro-2H-1-benzopyran-4-carboxamide] | 5.00 to 5.52 | ≥ 150 | > 5.52 | +++ (≥350)
20 | COc1ccc(Br)c2c1[C@H](C(=O)NS(=O)(=O)c1cccc3ncccc13)CC(C)(C)O2 [Example 72, (4R)-8-bromo-5-methoxy-2,2-dimethyl-N-(quinoline-5-sulfonyl)-3,4-dihydro-2H-1-benzopyran-4-carboxamide] | > 5.52 | ≥ 150 | > 5.52 | +++ (≥350)
21 | COc1ccc(C2CCC2)c2c1[C@@H](C(=O)NS(=O)(=O)c1cccc3nc(C)ccc13)CCO2 [Example 76, (4S)-8-cyclobutyl-5-methoxy-N-(2-methylquinoline-5-sulfonyl)-3,4-dihydro-2H-1-benzopyran-4-carboxamide] | 5.00 to 5.52 | ≥ 150 | 5.00 to 5.52 | +++ (≥350)
22 | COc1ccc(C2CCC2)c2c1[C@H](C(=O)NS(=O)(=O)c1cccc3nc(C)ccc13)CCO2 [Example 77, (4R)-8-cyclobutyl-5-methoxy-N-(2-methylquinoline-5-sulfonyl)-3,4-dihydro-2H-1-benzopyran-4-carboxamide] | 5.00 to 5.52 | ≥ 150 | > 5.52 | +++ (≥350)
23 | COc1ccc(Br)c2c1C(C(=O)NS(=O)(=O)c1cccc3ccccc13)OCC2 (stereo not shown) [Example 78, 5-bromo-8-methoxy-N-(naphthalene-1-sulfonyl)-3,4-dihydro-1H-2-benzopyran-1-carboxamide] | > 5.52 | ≥ 150 | > 5.52 | +++ (≥350)
24 | COc1ccc(C2CCC2)c2c1C(C(=O)NS(=O)(=O)c1cccc3ccccc13)OCC2 (stereo not shown) [Example 79, 5-cyclobutyl-8-methoxy-N-(naphthalene-1-sulfonyl)-3,4-dihydro-1H-2-benzopyran-1-carboxamide] | 5.00 to 5.52 | ≥ 150 | > 5.52 | +++ (≥350)
25 | COc1ccc(C2CCC2)c2c1C(C(=O)NS(=O)(=O)c1cccc3ncccc13)CO2 (stereo not shown) [Example 80, 7-cyclobutyl-4-methoxy-N-(quinoline-5-sulfonyl)-2,3-dihydro-1-benzofuran-3-carboxamide] | > 5.52 | ≥ 150 | > 5.52 | +++ (≥350)
